Measurements taken from PubChem BioAssay (NCI).
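Dose response: 5 concentrations. Exposure: 48 h. Format: 96-well plates. Endpoint: linear interpolation; highest concentration if not reached. GI50 is the concentration that inhibits growth by half. At the TGI there is no net growth.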

Experiments:
Experiment in all cases: NCI anticancer screen, dose series, 48 h
[1] = test system: EKVX NSCLC
[2] = test system: IGROV1 ovarian
[3] = test system: K-562 leukemia
[4] = test system: U251 CNS
[5] = test system: MDA-MB-435
[6] = test system: NCI-H460 lung
[7] = test system: SNB-19 CNS
[8] = test system: SF-268 CNS
[9] = test system: HCT-116 colon
[10] = test system: HCT-15 colon
[11] = test system: ACHN renal
[12] = test system: OVCAR-4 ovarian
[13] = test system: SNB-75 CNS
[14] = test system: OVCAR-3 ovarian
[15] = test system: KM12 colon
[16] = test system: RPMI-8226 leukemia
[17] = test system: SF-539 CNS
[18] = test system: HOP-92 NSCLC
[19] = test system: UACC-62 melanoma
[20] = test system: M14 melanoma
[21] = test system: COLO 205 colon
[22] = test system: TK-10 renal
[23] = test system: DU-145 prostate
[24] = test system: MCF7 breast
[25] = test system: HOP-62 NSCLC
[26] = test system: OVCAR-8 ovarian
[27] = test system: HL-60(TB) leukemia
[28] = test system: MDA-MB-231 breast
[29] = test system: RXF 393 renal
[30] = test system: CCRF-CEM leukemia
[31] = test system: NCI-H23 lung
[32] = test system: SW-620 colon
[33] = test system: SF-295 CNS
[34] = test system: 786-0 renal
[35] = test system: UO-31 renal
[36] = test system: NCI/ADR-RES ovarian
[37] = test system: SK-MEL-2 melanoma
[38] = test system: MOLT-4 leukemia
[39] = test system: OVCAR-5 ovarian
[40] = test system: HS 578T breast
[41] = test system: HT29 colon
[42] = test system: HCC-2998 colon
[43] = test system: UACC-257 melanoma
[44] = test system: SK-OV-3 ovarian
[45] = test system: NCI-H226 lung
[46] = test system: A498 renal
[47] = test system: T-47D breast
[48] = test system: LOX IMVI melanoma
[49] = test system: NCI-H522 lung
[50] = test system: MALME-3M melanoma
[51] = test system: SK-MEL-28 melanoma
[52] = test system: SN12C renal
[53] = test system: BT-549 breast
[54] = test system: SR leukemia
[55] = test system: PC-3 prostate
[56] = test system: CAKI-1 renal
[57] = test system: A549 NSCLC
[58] = test system: SK-MEL-5 melanoma

O=C1/C(=C/c2ccccc2)CN(C(=O)C(Cl)Cl)C/C1=C\c1ccccc1
GI50 [1]: 0.894 µM | TGI [1]: 3.06 µM | GI50 [2]: 0.708 µM | TGI [2]: 2.2 µM | GI50 [3]: 0.134 µM | GI50 [4]: 0.325 µM | TGI [4]: 1.24 µM | GI50 [5]: 0.312 µM | TGI [5]: 1.03 µM | GI50 [6]: 1.3 µM | TGI [6]: 3.01 µM | GI50 [7]: 0.495 µM | TGI [7]: 1.78 µM | GI50 [8]: 1.75 µM | TGI [8]: 5.2 µM | GI50 [9]: 0.209 µM | TGI [9]: 0.527 µM | GI50 [10]: 0.248 µM | TGI [10]: 0.77 µM | GI50 [11]: 0.438 µM | TGI [11]: 1.44 µM | GI50 [12]: 1.12 µM | TGI [12]: 2.44 µM | GI50 [13]: 1.09 µM | TGI [13]: 2.31 µM | GI50 [14]: 0.33 µM | TGI [14]: 1.06 µM | GI50 [15]: 0.267 µM | TGI [15]: 0.845 µM | GI50 [16]: 0.0474 µM | TGI [16]: 0.278 µM | GI50 [17]: 0.884 µM | TGI [17]: 2.25 µM | GI50 [18]: 1.26 µM | TGI [18]: 3.09 µM | GI50 [19]: 0.702 µM | TGI [19]: 2 µM | GI50 [20]: 0.622 µM | TGI [20]: 2.15 µM | GI50 [21]: 1.19 µM | TGI [21]: 3.01 µM | GI50 [22]: 1.79 µM | TGI [22]: 3.22 µM | GI50 [23]: 1.21 µM | TGI [23]: 2.47 µM | GI50 [24]: 0.113 µM | TGI [24]: 0.886 µM | GI50 [25]: 1.39 µM | TGI [25]: 2.84 µM | GI50 [26]: 0.442 µM | TGI [26]: 1.68 µM | GI50 [27]: 0.36 µM | TGI [27]: 2.04 µM | GI50 [28]: 0.807 µM | TGI [28]: 2.46 µM | GI50 [29]: 0.914 µM | TGI [29]: 2.33 µM | GI50 [30]: 0.152 µM | GI50 [31]: 0.822 µM | TGI [31]: 2.73 µM | GI50 [32]: 0.135 µM | TGI [32]: 0.44 µM | GI50 [33]: 0.597 µM | TGI [33]: 1.86 µM | GI50 [34]: 1.38 µM | TGI [34]: 2.82 µM | GI50 [35]: 1.29 µM | TGI [35]: 2.62 µM | GI50 [36]: 0.452 µM | TGI [36]: 4.92 µM | GI50 [37]: 1.79 µM | TGI [37]: 4.07 µM | GI50 [38]: 0.369 µM | GI50 [39]: 1.06 µM | TGI [39]: 2.85 µM | GI50 [40]: 1.32 µM | TGI [40]: 6.86 µM | GI50 [41]: 0.295 µM | TGI [41]: 1.06 µM | GI50 [42]: 0.703 µM | TGI [42]: 1.98 µM | GI50 [43]: 1.42 µM | TGI [43]: 3.13 µM | GI50 [44]: 1.77 µM | TGI [44]: 3.23 µM | GI50 [45]: 1.22 µM | TGI [45]: 5.17 µM | GI50 [46]: 1.48 µM | TGI [46]: 3 µM | GI50 [47]: 1.19 µM | TGI [47]: 4.11 µM | GI50 [48]: 0.139 µM | TGI [48]: 0.353 µM | GI50 [49]: 1.08 µM | TGI [49]: 2.69 µM | GI50 [50]: 0.996 µM | TGI [50]: 3.06 µM | GI50 [51]: 0.68 µM | TGI [51]: 1.81 µM | GI50 [52]: 0.43 µM | TGI [52]: 1.26 µM | GI50 [53]: 1.24 µM | TGI [53]: 2.69 µM | GI50 [54]: 0.11 µM | GI50 [55]: 0.297 µM | TGI [55]: 1.08 µM | GI50 [56]: 1.42 µM | TGI [56]: 2.95 µM | GI50 [57]: 1.7 µM | TGI [57]: 3.92 µM | GI50 [58]: 0.698 µM | TGI [58]: 1.94 µM
